Measured values reported in patent publication US6235742A, “5-substituted pyrazolo[4,3-D]pyrimidin-7-ones” (Pfizer Inc., priority 1997, dated 2001).
Entries after “also recorded” stand apart in the source; their conditions may differ. Where two headings read alike, the source gives them in different places.

Legend:
Format in all cases: biochemical
PDE5 [1] = target: T1, PDE5 (Homo sapiens, UniProt O76074); assay: PDE5 inhibition, human platelet; conditions: comparative study
T1 construct: PDE5 is also obtained from human platelets or rabbit platelets; from tissue; host or cells: human platelets
Excerpt: (§1) In vitro PDE inhibitory activities against cyclic guanosine 3', 5'-monophosphate (cGMP) and cyclic adenosine 3', 5'-monophosphate (cAMP) phosphodiesterases can be determined by measurement of their IC50 inhibition of enzyme activity.
(§2) The required PDE enzymes are isolated from a variety of sources, including rat kidney, human corpus cavernosum, human platelets, rabbit platelets, human cardiac ventricle, human skeletal muscle and bovine retina, essentially by the method of W J Thompson and M M Appleman (Biochem, 1971, 10, 311).
(§3) For example, for some of the studies the calcium/calmodulin (Ca/CAM)-dependent PDE (PDE1) is obtained from either human cardiac ventricle or rat kidney. The cGMP-stimulated PDE (PDE2), the cGMP-specificPDE (PDE5) and the cGMP-inhibited cAMP PDE (PDE3) are obtained from human corpus cavernosum tissue. PDE5 is also obtained from human platelets or rabbit platelets by techniques usual in the art. The cAMP-specific PDE (PDE4) is obtained from rat kidney. The photoreceptor PDE (PDE6) is obtained from bovine retina.
(§4) Assays are performed using a modification of the "batch" method of W J Thompson et al (Biochem, 1979, 18, 5228).

PDE5 [2] = target: T2, PDE5 (Oryctolagus cuniculus, UniProt G1SX67); assay: PDE5 inhibition, rabbit platelet
T2 construct: PDE5 is also obtained from human platelets or rabbit platelets; from tissue; host or cells: rabbit platelets
Excerpt: as §1, §2, §3, §4

Ca/CAM-dependent PDE1 = assay: PDE1 inhibition stated in words (source not given); conditions: for potency and selectivity as PDE1 inhibitor: summary in words
Excerpt: as §1, §2, §3, §4

[3] = system: PDE1 (calcium/calmodulin (Ca/CAM)-dependent PDE); assay: PDE1 inhibition, rat kidney
Excerpt: as §1, §2, §3, §4

PDE6 (photoreceptor PDE) = target: T3, PDE6 (photoreceptor PDE) (Bos taurus, UniProt P11541+P23439); assay: PDE inhibition, PDE type 6 from bovine retina; conditions: PDE type 6, bovine retina
T3 construct: The photoreceptor PDE (PDE6) is obtained from bovine retina; from tissue; host or cells: bovine retina
T3 sequence (P11541 2-856 limits assumed): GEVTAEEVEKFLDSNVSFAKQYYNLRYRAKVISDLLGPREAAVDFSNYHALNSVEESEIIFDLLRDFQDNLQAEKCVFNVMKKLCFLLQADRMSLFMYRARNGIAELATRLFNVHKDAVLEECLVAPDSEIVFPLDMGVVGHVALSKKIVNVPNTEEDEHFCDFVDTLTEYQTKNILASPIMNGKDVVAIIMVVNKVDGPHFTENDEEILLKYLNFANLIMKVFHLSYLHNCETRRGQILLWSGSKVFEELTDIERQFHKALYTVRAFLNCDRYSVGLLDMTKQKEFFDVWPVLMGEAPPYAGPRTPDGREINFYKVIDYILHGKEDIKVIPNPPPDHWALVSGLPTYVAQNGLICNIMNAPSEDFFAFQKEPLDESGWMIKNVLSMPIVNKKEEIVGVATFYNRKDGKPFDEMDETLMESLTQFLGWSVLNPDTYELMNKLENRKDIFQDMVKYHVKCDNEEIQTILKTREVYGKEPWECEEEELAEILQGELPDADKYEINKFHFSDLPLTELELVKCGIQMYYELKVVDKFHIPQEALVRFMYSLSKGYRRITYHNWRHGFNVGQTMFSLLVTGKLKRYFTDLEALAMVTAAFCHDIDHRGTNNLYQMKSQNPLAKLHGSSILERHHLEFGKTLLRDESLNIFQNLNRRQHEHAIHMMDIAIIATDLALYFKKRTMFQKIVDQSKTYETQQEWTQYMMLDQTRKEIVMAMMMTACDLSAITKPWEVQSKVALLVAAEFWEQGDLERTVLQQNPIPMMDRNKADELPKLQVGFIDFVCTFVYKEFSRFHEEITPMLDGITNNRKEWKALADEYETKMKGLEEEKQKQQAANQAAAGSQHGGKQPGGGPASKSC
T3 sequence (P23439 2-850 limits assumed): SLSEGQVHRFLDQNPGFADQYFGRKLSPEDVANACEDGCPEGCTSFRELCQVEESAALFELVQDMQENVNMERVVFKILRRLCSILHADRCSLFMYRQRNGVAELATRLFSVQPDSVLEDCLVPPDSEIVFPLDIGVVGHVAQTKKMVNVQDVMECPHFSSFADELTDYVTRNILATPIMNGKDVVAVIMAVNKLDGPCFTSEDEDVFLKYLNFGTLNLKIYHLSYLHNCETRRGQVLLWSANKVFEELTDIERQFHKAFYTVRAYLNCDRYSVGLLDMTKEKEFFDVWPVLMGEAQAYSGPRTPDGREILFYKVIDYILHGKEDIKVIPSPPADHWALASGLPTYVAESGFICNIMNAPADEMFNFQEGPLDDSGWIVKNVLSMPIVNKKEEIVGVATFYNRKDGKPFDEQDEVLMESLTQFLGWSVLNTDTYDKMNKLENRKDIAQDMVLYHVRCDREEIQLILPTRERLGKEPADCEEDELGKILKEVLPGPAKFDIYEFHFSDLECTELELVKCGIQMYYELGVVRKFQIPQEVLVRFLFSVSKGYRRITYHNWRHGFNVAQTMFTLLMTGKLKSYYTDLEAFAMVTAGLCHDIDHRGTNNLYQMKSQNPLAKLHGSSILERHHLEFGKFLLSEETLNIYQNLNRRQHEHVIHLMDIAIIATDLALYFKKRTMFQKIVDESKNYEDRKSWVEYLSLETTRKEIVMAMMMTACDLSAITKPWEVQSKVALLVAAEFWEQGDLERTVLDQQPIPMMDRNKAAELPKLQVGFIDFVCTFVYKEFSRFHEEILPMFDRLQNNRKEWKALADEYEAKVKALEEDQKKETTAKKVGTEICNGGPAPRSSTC
Excerpt: as §1, §2, §3, §4

[4] = system: PDE3 (cGMP-inhibited cAMP PDE); assay: PDE inhibition, PDE type 3 from human corpus cavernosum; conditions: PDE type 3, human corpus cavernosum
Excerpt: as §1, §2, §3, §4

PDE4 (cAMP-specific PDE) = assay: PDE inhibition, PDE type 4 from rat kidney; conditions: PDE type 4, rat kidney
Excerpt: as §1, §2, §3, §4

[5] = target: T4, PDE1 (calcium/calmodulin (Ca/CAM)-dependent PDE) (Homo sapiens, UniProt Q14123); assay: PDE inhibition, PDE type 1 from human cardiac ventricle; conditions: PDE type 1, human cardiac ventricle
T4 construct: obtained from either human cardiac ventricle or rat kidney; from tissue; host or cells: human cardiac ventricle
T4 sequence (Q14123 1-634 isoform Q14123-2): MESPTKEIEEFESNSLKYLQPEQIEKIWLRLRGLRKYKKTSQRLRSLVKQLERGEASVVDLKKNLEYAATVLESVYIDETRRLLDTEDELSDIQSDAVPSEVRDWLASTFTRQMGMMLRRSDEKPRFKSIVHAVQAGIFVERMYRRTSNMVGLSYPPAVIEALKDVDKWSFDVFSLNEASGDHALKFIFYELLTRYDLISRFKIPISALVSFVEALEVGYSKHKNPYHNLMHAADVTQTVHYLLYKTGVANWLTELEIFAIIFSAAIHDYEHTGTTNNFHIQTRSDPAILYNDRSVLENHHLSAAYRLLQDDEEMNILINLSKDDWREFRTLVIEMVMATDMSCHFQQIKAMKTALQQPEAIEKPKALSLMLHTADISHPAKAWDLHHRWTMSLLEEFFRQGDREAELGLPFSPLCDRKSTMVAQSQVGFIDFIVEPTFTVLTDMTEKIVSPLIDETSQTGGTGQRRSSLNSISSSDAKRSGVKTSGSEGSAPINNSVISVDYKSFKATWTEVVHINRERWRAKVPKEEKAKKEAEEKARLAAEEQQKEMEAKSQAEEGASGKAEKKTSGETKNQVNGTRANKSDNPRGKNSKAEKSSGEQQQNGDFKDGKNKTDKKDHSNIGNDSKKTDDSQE
Excerpt: as §1, §2, §3, §4

PDE5 (cGMP-specific PDE) = target: T5, PDE5 (cGMP-specific PDE) (Homo sapiens, UniProt O76074); assay: PDE inhibition, PDE type 5 from human corpus cavernosum; conditions: PDE type 5, human corpus cavernosum
T5 construct: are obtained from human corpus cavernosum tissue; from tissue; host or cells: human corpus cavernosum
Excerpt: as §1, §2, §3, §4

[6] = target: T6, PDE2 (cGMP-stimulated PDE) (Homo sapiens, UniProt O00408); assay: PDE inhibition, PDE type 2 from human corpus cavernosum; conditions: PDE type 2, human corpus cavernosum
T6 construct: are obtained from human corpus cavernosum tissue; from tissue; host or cells: human corpus cavernosum
T6 sequence (O00408 whole entry): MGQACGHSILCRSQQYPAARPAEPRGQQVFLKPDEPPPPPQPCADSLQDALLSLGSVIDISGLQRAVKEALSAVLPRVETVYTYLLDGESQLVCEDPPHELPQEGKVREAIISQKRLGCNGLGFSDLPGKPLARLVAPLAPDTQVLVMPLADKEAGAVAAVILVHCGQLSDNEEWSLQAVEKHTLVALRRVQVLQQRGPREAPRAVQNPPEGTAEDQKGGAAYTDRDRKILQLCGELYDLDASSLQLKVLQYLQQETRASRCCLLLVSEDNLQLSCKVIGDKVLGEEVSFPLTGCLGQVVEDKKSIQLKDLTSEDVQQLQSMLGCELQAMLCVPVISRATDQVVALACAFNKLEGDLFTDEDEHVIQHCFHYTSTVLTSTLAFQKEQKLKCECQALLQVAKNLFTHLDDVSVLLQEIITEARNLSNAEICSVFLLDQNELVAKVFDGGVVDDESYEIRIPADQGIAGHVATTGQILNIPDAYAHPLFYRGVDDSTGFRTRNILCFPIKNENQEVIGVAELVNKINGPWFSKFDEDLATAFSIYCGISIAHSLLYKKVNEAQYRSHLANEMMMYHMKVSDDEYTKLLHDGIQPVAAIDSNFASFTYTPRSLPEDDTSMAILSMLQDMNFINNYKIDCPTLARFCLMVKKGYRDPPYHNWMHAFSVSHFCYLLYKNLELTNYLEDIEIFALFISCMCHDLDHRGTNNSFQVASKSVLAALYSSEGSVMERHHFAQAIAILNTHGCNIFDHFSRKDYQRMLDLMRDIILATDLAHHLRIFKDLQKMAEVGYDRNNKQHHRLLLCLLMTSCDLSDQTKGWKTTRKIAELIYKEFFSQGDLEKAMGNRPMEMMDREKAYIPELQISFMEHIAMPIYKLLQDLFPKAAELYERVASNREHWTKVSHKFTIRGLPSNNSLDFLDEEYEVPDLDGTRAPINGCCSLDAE
Excerpt: as §1, §2, §3, §4

[7] = rabbit platelet, comparative study, read-out: PDE5 INHIBITION - IC50 Values
[8] = rat kidney, comparative study, cGMP, read-out: cGMP / PDE1 INHIBITION - IC50 Values
[9] = further studies, IC50 per protocol, read-out: RABBIT PLATELET PDE5
[10] = further studies, IC50 per protocol, read-out: RAT KIDNEY PDE1

Row | SMILES | IC50 (PDE5 [1]) | IC50 (PDE5 [2]; [7]) | PDE1 inhibition (Ca/CAM-dependent PDE1; statement in words) | IC50 [3, 8] | IC50 (PDE5 [2]; [9]) | potency and selectivity as PDE1 inhibitor (Ca/CAM-dependent PDE1) | IC50 [3, 10] | IC50 (PDE6 (photoreceptor PDE)) | IC50 [4] | IC50 (PDE4 (cAMP-specific PDE)) | IC50 [5] | IC50 (PDE5 (cGMP-specific PDE)) | IC50 [6]
1 | Cc1nn(C)c2c(=O)[nH]c(Cc3ccc(N(C)C)cc3)nc12 ['188 compound, reference compound] | 3200 nM | 2800 nM | not as effective at such low concentrations; also recorded: at least a weak PDE1 inhibitor | 9900 nM |  |  |  |  |  |  |  |  | 
2 | CCCc1nn(C)c2c(=O)[nH]c(Cc3ccccc3NS(C)(=O)=O)nc12 [Example 36] |  |  |  |  | 1800 nM | potent and selective PDE1 inhibitors | 59 nM |  |  |  |  |  | 
3 | CCCc1nn(C)c2c(=O)[nH]c(Cc3ccc(NS(=O)(=O)c4ccccc4)cc3)nc12 [Example 37] |  |  |  |  | 6400 nM | potent and selective PDE1 inhibitors | 94 nM |  |  |  |  |  | 
4 | CCCc1nn(C)c2c(=O)[nH]c(Cc3ccc(N(CC)CC)cc3)nc12 [Example 50, 5-[4-(diethylamino)benzyl]-1-methyl-3-propyl-6,7-dihydro-1H-pyrazolo[4,3-d]pyrimidin-7-one] | 2700 nM | 6700 nM |  | 37 nM |  | potent and selective PDE1 inhibitors |  | 2030 nM | 3940 nM | 23000 nM | 38 nM | 2490 nM | 1990 nM
